Experimental data reported in patent publication US20050010054A1, “Preparation of crystalline polymorphs of fosinopril sodium” (priority 2001, published 2005).
Blank lines part the entries; values can stand above or below the compound they belong to.

Legend:
[1] = Hydration of the solid under air exposure; conditions: form B from methanol solutions evaporated in an atomizer at room temperature
[2] = polymorph A versus polymorph B; as stated in EP-B-0442378; cited from earlier work
[3] = Hydrolytic degradation in mixtures of ketonic or alcoholic solvents and water; type: physicochemical; conditions: forms fosinoprilate, increases with time, higher temperature and higher water content
Text: This hydrolytic degradation increases with time and with higher temperature and higher water content of the solvent.

SMILES: CCC(=O)O[C@@H](O[P@](=O)(CCCCc1ccccc1)CC(=O)N1C[C@H](C2CCCCC2)C[C@H]1C(=O)[O-])C(C)C.[Na+] [form B, sodium salt of fosinopril]
hydration under air exposure [1]: spontaneously hydrated under air exposure

SMILES: CCC(=O)O[C@@H](O[P@](=O)(CCCCc1ccccc1)CC(=O)N1C[C@H](C2CCCCC2)C[C@H]1C(=O)[O-])C(C)C.[Na+] [polymorph A, sodium salt of fosinopril]
relative thermodynamic stability of polymorphs [2]: more stable one from the thermodynamic point of view

hydrolytic stability in solution [3]: undergoes hydrolysis
SMILES: CCC(=O)O[C@@H](O[P@](=O)(CCCCc1ccccc1)CC(=O)N1C[C@H](C2CCCCC2)C[C@H]1C(=O)[O-])C(C)C.[Na+] [sodium fosinopril, sodium salt of fosinopril]
